Like-named read-outs stand apart in the source and are kept apart here.

Data set [1] can be described thus: Solubility to water calculated from UV-visible absorbance. As to conditions: for Solubility (%): saturated solution in water, diluted with standard buffer pH 6.86 (25° C.), absorbance at maximum absorption wavelength 300-550 nm, calibration curve.
Description: (§1) The measurement of the absorbance used an ultraviolet-visible spectrometer (UV-1700, manufactured by Shimadzu Corp.). Solutions of known concentrations of a sample were prepared by using a standard buffer solution (manufactured by Fujifilm Wako Pure Chemical Corp., a neutral phosphate salt pH standard solution, pH: 6.86 (25° C.)), and the absorbances at the maximum absorption wavelength in the wavelength region of 300 nm to 550 nm were measured by the ultraviolet-visible spectrometer. A calibration curve was fabricated from the obtained absorbances and the concentrations. Then, a saturated solution of the sample was prepared by using water and was diluted by using the standard buffer solution. The absorbance at the maximum absorption wavelength was measured and the solubility (%) was calculated from the calibration curve. The density of the solution was assumed to be 1.0 g/cm^3 and the solubility (mol/L) was calculated.
The conditions of data set [2]: pH 6.86.
Description: as §1
[3] abbreviates: water, thermodynamic from solid.
[4] abbreviates: solubility to water, calculated from solubility (%), density of the solution assumed to be 1.0 g/cm^3.

As for `O=C([O-])COc1cc2c(c(OCC(=O)[O-])c1OCC(=O)[O-])C(=O)c1cc(OCC(=O)[O-])c(OCC(=O)[O-])c(OCC(=O)[O-])c1C2=O.[K+].[K+].[K+].[K+].[K+].[K+]` [formula (3-2)], the “Solubility (%)” value in data set [1] is given as 17.7%. Besides, in data set [1] (setting [3]), the solubility is 200 mM. Consider `O=C1c2ccccc2C(=O)c2c1cc(OCCCS(=O)(=O)[O-])c(OCCCS(=O)(=O)[O-])c2OCCCS(=O)(=O)[O-].[Na+].[Na+].[Na+]` [formula (3-3)], for which the “Solubility (%)” value in data set [1] is 35.3%. Further, the solubility in data set [1] (setting [3]) was 510 mM. For the compound `O=C1c2cc(OCCOCCOCCO)c(O)c(OCCOCCOCCO)c2C(=O)c2cc(OCCOCCOCCO)c(O)c(OCCOCCOCCO)c21` [formula (3-5)], the “Solubility (%)” value in data set [1] is on record as 41.8%. For the same compound, the solubility in data set [1] (setting [3]) was 500 mM. Turning to `O=C1c2ccccc2C(=O)c2cc(S(=O)(=O)[O-])ccc21.[Na+]` [9,10-anthraquinone-2-sulfonic acid (Na)], in data set [2], the “Solubility (%)” value worked out at 0.7%.

As to `O=C1c2cccc(S(=O)(=O)[O-])c2C(=O)c2cccc(S(=O)(=O)[O-])c21.[Na+].[Na+]` [9,10-anthraquinone-1,5-disulfonic acid (Na), reference compound], the “Solubility (%)” value in data set [1] is on record as 2.7%. Also, in data set [1] (setting [4]), the “solubility” value was 70 mM.

In the case of `O=C1C(SCCCS(=O)(=O)[O-])=C(SCCCS(=O)(=O)[O-])C(=O)c2ccccc21.[K+].[K+]` [formula (2-1)], the “Solubility (%)” value in data set [1] was 36.6%. For the same compound, the solubility in data set [1] (setting [3]) was 670 mM. In the case of `O=C1c2cccc(S(=O)(=O)[O-])c2C(=O)c2c1cccc2S(=O)(=O)[O-].[K+].[K+]` [9,10-anthraquinone-1,8-disulfonic acid (K), reference compound], the “Solubility (%)” value in data set [1] is 0.2%. Also, in data set [1] (setting [4]), the “solubility” value was 4 mM.

Broadly, the solubility is the concentration that dissolves in the medium under given conditions.

The values above are taken from patent publication US20230045245A1, “HETEROCYCLIC COMPOUND OR SALT THEREOF, ACTIVE MATERIAL, ELECTROLYTIC SOLUTION AND REDOX FLOW BATTERY” (NIPPON KAYAKU KABUSHIKI KAISHA, priority 2020, published 2023).
